Reference: PubChem BioAssay (NCI)
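Tested at 5 concentrations; 48 h exposure; 96-well plates; endpoints linearly interpolated, else capped at highest concentration. GI50 marks 50% less growth. TGI: concentration producing complete growth inhibition.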

Assays:
Experiment in all cases: DTP human tumour cell line panel, 48 h
SW-620 colon = tested on: SW-620 colon
NCI-H522 lung = tested on: NCI-H522 lung
U251 CNS = tested on: U251 CNS
786-0 renal = tested on: 786-0 renal
UACC-62 melanoma = tested on: UACC-62 melanoma
ACHN renal = tested on: ACHN renal
OVCAR-5 ovarian = tested on: OVCAR-5 ovarian
NCI-H23 lung = tested on: NCI-H23 lung
NCI/ADR-RES ovarian = tested on: NCI/ADR-RES ovarian
T-47D breast = tested on: T-47D breast

Row | Compound | TGI (SW-620 colon) [µM] | TGI (NCI-H522 lung) [µM] | TGI (U251 CNS) [µM] | TGI (786-0 renal) [µM] | TGI (UACC-62 melanoma) [µM] | TGI (ACHN renal) [µM] | TGI (OVCAR-5 ovarian) [µM] | TGI (NCI-H23 lung) [µM] | GI50 (SW-620 colon) [µM] | GI50 (NCI-H522 lung) [µM] | GI50 (NCI/ADR-RES ovarian) [µM] | TGI (NCI/ADR-RES ovarian) [µM] | GI50 (U251 CNS) [µM] | GI50 (T-47D breast) [µM] | TGI (T-47D breast) [µM] | GI50 (786-0 renal) [µM] | GI50 (UACC-62 melanoma) [µM] | GI50 (OVCAR-5 ovarian) [µM] | GI50 (NCI-H23 lung) [µM] | GI50 (ACHN renal) [µM]
1 | CC1(C)O/C(=C\c2ccccc2)C(=O)/C(=C/c2ccccc2)O1 | > 100 | 22.5 | > 100 | > 100 | > 100 | > 100 | 60.8 | > 100 |  |  |  |  |  |  |  |  |  |  |  | 
2 | CCOC(=N)CC(=O)Nc1cccc(C)c1C | > 100 | > 100 | > 100 | > 100 | > 100 | > 100 | > 100 | > 100 |  |  |  |  |  |  |  |  |  |  |  | 
3 | Cc1cc(C2CC(O)C(CO)O2)cc2c(=O)[nH]c(N)nc12 (stereo unspecified) | > 100 | > 100 | > 100 | > 100 | > 100 |  | > 100 | > 100 | > 100 | > 100 | > 100 | > 100 | > 100 | > 100 | > 100 | > 100 | > 100 | > 100 | > 100 | 
4 | C=CCNC(=O)N(CCC)CCCCC(NC(C)=O)C(=O)NCc1ccccc1 (stereo unspecified) | > 100 | > 100 | > 100 | > 100 | > 100 | > 100 | > 100 | > 100 |  |  |  |  |  |  |  |  |  |  |  | 
5 | O=C(Nc1cc(Cl)ccc1Cl)C(=O)C(c1cnc2ccccc2n1)[N+](=O)[O-] (stereo unspecified) | > 100 | > 100 | > 100 | > 100 | > 100 | > 100 | > 100 | > 100 |  |  |  |  |  |  |  |  |  |  |  | 
6 | Cc1ccc(C2(O)CC(c3ccc([N+](=O)[O-])o3)=NN2C(=O)COc2ccc(Cl)cc2)cc1 (stereo unspecified) | 10.6 | 34.2 | 9.09 | 18 | 15.1 | 43.1 | > 94.9 | 11.9 |  |  |  |  |  |  |  |  |  |  |  | 
7 | N#C/C(=C/N1CCN(C(=O)c2ccco2)C1=S)C(=O)c1ccccc1 | 38.3 | 12.3 | > 100 | 44.6 | 30.3 | 72.5 |  | 43.5 | 5.94 | 3.74 |  |  | 17 | 7.16 | > 100 | 16.1 | 12.9 |  | 15.2 | 16.6
8 | Nc1ccn(C2(CO)C=C(CO)C(O)C2O)c(=O)n1 (stereo unspecified) | > 25.8 | > 25.8 | > 25.8 | > 25.8 | > 25.8 | > 25.8 |  |  |  |  |  |  |  |  |  |  |  |  |  | 
9 | COC(=O)/C(C=O)=C/Sc1ccccc1 | > 100 | 24 | 42.2 | 30.2 | 77.8 | > 100 | 93.8 | > 100 |  |  |  |  |  |  |  |  |  |  |  | 
10 | C[n+]1cc(C(O)c2ccc3c(c2)OCO3)c2ccccc2c1 (stereo unspecified) | > 100 | 48.1 | > 100 | > 100 | > 100 | > 100 | > 100 |  |  |  |  |  |  |  |  |  |  |  |  | 
11 | CN[C@@H](C)[C@H](NC)c1ccccc1 | > 100 | > 100 | > 100 | > 100 | > 100 |  |  | > 100 |  |  |  |  |  |  |  |  |  |  |  | 
